Data reported in patent US20060252679A1, “Preventive and/or trerapeutic drgs for itch” (priority 2002, published 2006).

Columns and labels:
Itching Induced by SPC = assay: Suppressive effect on itching induced by SPC (scratching behavior in mice); format: in vivo, ddY male mice; details: 300 mg/kg orally one hour before SPC (50 μg/site s.c.), counted for 60 minutes, ten mice per group
Description: SPC (50 μg/site) was subcutaneously administered (an SPC-administered group) to the rostal back of ddY male mice (3 to 4 weeks age), the mice were placed in a cage made of acrylic for the observation (7.5×7.5×15 cm) and behavior of the mice was taken by a video camera for 60 minutes in the absence of observing persons. The video camera was subjected to a playback and numbers of scratching behavior by hind limb were counted by visual observation. In a negative control group (a group to which a physiological saline was administered), a physiological saline (0.1 mL/site) was administered instead of SPC. In the compound-administered group, each compound 1 and compound 3 (300 mg/kg) was suspended in a 0.5 w/v % aqueous solution of methyl cellulose (MC) and orally administered at one hour before administration of SPC. In each of the SPC-administered group and the physiological saline-administered group, a 0.5 w/v % aqueous solution of MC (10 mL/kg) was orally administered at one hour before administration of SPC and physiological saline, respectively. The test was conducted for ten mice per group. Suppressive rate by the compounds for scratching behavior induced by SPC was calculated by the following formula. In the formula, A and B have the following meanings, respectively. […]

[1] = system: Itching Induced by Compound 48/80; assay: Effect on itching induced by Compound 48/80 (scratching behavior in mice); format: in vivo, ddY strain mice; details: 300 mg/kg orally one hour before Compound 48/80 (10 μg/site s.c.); for Numbers of Scratching Behavior (numbers/60 min): ten mice per group; for Suppressive rate(%) of scratching behavior induced by Compound 48/80: versus Compound 48/80-administered group
Description: Compound 48/80 (10 μg/site) was subcutaneously administered (a Compound 48/80-administered group) to the rostal back of ddY strain mice (4 weeks age), the mice were placed in a cage made of acrylic for the observation (7.5×7.5×15 cm) and behavior of the mice was taken by a video camera for 60 minutes in the absence of observing persons. The video camera was subjected to a playback and numbers of scratching behavior by hind limb were counted by visual observation. In a negative control group (a group to which a physiological saline was administered), a physiological saline (0.1 mL/site) was administered instead of Compound 48/80. In the compound-administered group, each compound 1 and compound 3 (300 mg/kg) was suspended in a 0.5 w/v % aqueous solution of methyl cellulose (MC) and orally administered at one hour before administration of Compound 48/80. In each of the Compound 48/80-administered group and the physiological saline-administered group, a 0.5 w/v % aqueous solution of MC was orally administered at one hour before administration of Compound 48/80 and physiological saline, respectively. The test was conducted for ten mice per group. Suppressive rate by the compound for scratching behavior induced by Compound 48/80 was calculated by the following formula.
In the formula, C and D have the following meanings.
C: numbers of scratching behavior of the Compound 48/80-administered group
D: numbers of scratching behavior of the compound-administered group Suppressive Rate (%)=[(C−D)/C]×100

GPR4 = target: T1, GPR4 (Homo sapiens, UniProt P46093); assay: Antagonistic action on GPR4 (luciferase reporter in GPR4 assay cells); format: cell-based; details: 17β-estradiol 10 nmol/L, 6 hours, luciferase luminescence
T1 construct: expressed in transfected cells; host or cells: KJMGER8 (Namalwa KJM-1 human B-cell line stably expressing Gal4-ER), stably co-transfected with pAGal9-GPR4 and the CRE-luciferase reporter pACREpluc
Description: Cells for GPR4 assay prepared in Referential Example 5 (said assay cells express GPR4 by stimulation with 17β-estradiol) were seeded on white plates at the rate of 10^5 cells/well, and a solution where 17β-estradiol (manufactured by Sigma) was diluted with a medium so as to make 10 nmol/L in the reaction solution and test compounds were added to the plate and the mixture was incubated at 37° C. for 6 hours in a 5% CO2 incubator. After that, a Steady Glo Luciferase Assay System (manufactured by Promega) solution was added to stop the reaction and the amount of luminescence during one second was measured using a Top Count (Packard, Meriden, Conn., U.S.A.).
Activity of the each of test compounds (antagonistic action) was expressed by an inhibition rate calculated on the basis of counts per second in the presence or absence of 17β-estradiol as shown by the following formula. IC50 value was calculated from the inhibition rate by a linear approximate analysis of the Logit-Log conversion method.
In the formula, A, B and C each have the following meaning, respectively.
A: counts per second when 17β-estradiol and the test compound were added
B: counts per second when neither 17β-estradiol nor the test compound was added
C: counts per second when only 17β-estradiol was added Inhibition Rate (%)=[1−{(A−B)/(C−B)}]×100
2 μl of plasmid pAGal9-GPR4 with inducible expression of GPR4 and 2 μl of reporter plasmid pACREpluc were co-transferred into 6×10^6 cell of KJMGER8 by the above-mentioned electroporation. The transformants were suspended in 8 ml of an RPMI 1640-ITPSG medium and cultured in a CO2 incubator at 37° C. for 24 hours. After the cultivation, blasticidin S ([…]), hygromycin B (300 μg/ml) and geneticin ([…]) were added and cultivation was carried out for 14 days more, and stable transformants (called GPR4 assay cells) were obtained. The transformants were subcultured in an RPMI 1640-ITPSG medium containing blasticidin S (2.0 μg/ml), hygromycin B (300 μg/ml) and geneticin ([…]).

[2] = system: Itching in Chronic Dermatitis Model to which Hapten was Repeatedly Applied; assay: Effect on itching in chronic dermatitis model to which hapten (oxazolone) was repeatedly applied; format: in vivo, BALB/c male mice; details: mean ± standard error, control group 264 ± 29
Description: Preparation of chronic dermatitis model to which hapten was repeatedly applied was conducted according to the method by Kitagaki, et al. [Journal of Investigative Dermatology, volume 105, pages 749-755 (1995)] with some modifications.
With regard to hapten, oxazolone (manufactured by Sigma-Aldrich) was used and dissolved in acetone (manufactured by Kanto Kagaku) to prepare a 0.5 w/v % solution of oxazolone in acetone (antigen solution). The antigen solution (10 μL) was applied to the rostal back of BALB/c male mice (6 weeks age) with the hair was shaved to sensitize the mice. Starting from 7 days thereafter (day 0), the antigen solution (10 μL) was repeatedly challenged to apply at the same site until day 16 every two or three days to prepare chronic dermatitis models.
Compound 1 was suspended in a 0.5 w/v % aqueous solution of MC in a concentration of 10 and 30 mg/mL, respectively, and orally administered at a dose of 10 mL/kg at 1 hour before application of the antigen solution on the day 16. As a control group, a group to which only 0.5 w/v % aqueous solution of MC was similarly administered per os was prepared. […]
In order to adjust the mice to new environment, they were allowed to place for one hour in a cage (7.5×8×15 cm) made of acrylic for observation. […] The numbers of scraching behavior by hind limb to the applied site and around there were counted.

T1 sequence (P46093 whole entry E215Q, the tested form may be a part): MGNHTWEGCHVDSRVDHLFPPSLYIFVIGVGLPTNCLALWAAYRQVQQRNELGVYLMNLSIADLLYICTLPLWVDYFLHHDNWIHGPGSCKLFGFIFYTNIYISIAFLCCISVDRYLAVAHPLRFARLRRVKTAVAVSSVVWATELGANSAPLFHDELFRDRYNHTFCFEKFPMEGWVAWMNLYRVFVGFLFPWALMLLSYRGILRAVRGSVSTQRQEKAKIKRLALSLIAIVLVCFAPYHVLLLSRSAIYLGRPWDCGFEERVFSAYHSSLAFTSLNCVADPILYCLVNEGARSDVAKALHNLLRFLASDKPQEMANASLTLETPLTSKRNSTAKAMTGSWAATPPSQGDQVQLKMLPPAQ

Row | Compound | IC50 (GPR4) [nM] | Numbers of scratching behavior of the compound-administered group (Itching Induced by SPC) | Numbers of Scratching Behavior (numbers/60 min) [1] [numbers/60 min] | Suppressive rate(%) of scratching behavior induced by Compound 48/80 [1] [%] | Numbers of Scratching Behavior for 1 Hour after Application of Hapten ([2]; 100 mg/kg orally 1 hour before antigen application on day 16) | Numbers of Scratching Behavior for 1 Hour after Application of Hapten ([2]; 300 mg/kg orally 1 hour before antigen application on day 16)
1 | CCc1nc2c(C)cc(C)nc2n1Cc1ccc2c(c1)CCc1cc(CN3CCCC3)ccc1N2 [Compound 3, 2-(2-Ethyl-5,7-dimethyl-3H-imidazo[4,5-b]pyridin-3-ylmethyl)-8-(pyrrolidin-1-ylmethyl)-10,11-dihydro-5H-dibenz[b,f]azepine] | 2.3 | 18 | 26 | 52 | – | –
2 | CCc1nc2c(C)cc(C)nc2n1Cc1ccc2c(c1)CCc1cc(CN3CCOCC3)ccc1N2 [Compound 4, 2-(2-Ethyl-5,7-dimethyl-3H-imidazo[4,5-b]pyridin-3-ylmethyl)-8-morpholinomethyl-10,11-dihydro-5H-dibenz[b,f]azepine] | 5.8 | – | – | – | – | –

The remaining compounds from weak to strong by IC50 (GPR4), led by results:

Row | IC50 (GPR4) [nM] | Compound | Numbers of scratching behavior of the compound-administered group (Itching Induced by SPC) | Numbers of Scratching Behavior (numbers/60 min) [1] [numbers/60 min] | Suppressive rate(%) of scratching behavior induced by Compound 48/80 [1] [%] | Numbers of Scratching Behavior for 1 Hour after Application of Hapten ([2]; 100 mg/kg orally 1 hour before antigen application on day 16) | Numbers of Scratching Behavior for 1 Hour after Application of Hapten ([2]; 300 mg/kg orally 1 hour before antigen application on day 16)
3 | 14 | CCc1nc2c(C)cc(C)nc2n1Cc1ccc2c(c1)CCc1cc(CN3CC(C)CC(C)C3)ccc1N2 (stereo not shown) [Compound 5] | – | – | – | – | –
4 | 4 | CCc1nc2c(C)cc(C)nc2n1Cc1ccc2c(c1)CCc1cc(CN3CCN(C)CC3)ccc1N2 [Compound 1, 2-(2-Ethyl-5,7-dimethyl-3H-imidazo[4,5-b]pyridin-3-ylmethyl)-8-(4-methylpiperazin-1-ylmethyl)-10,11-dihydro-5H-dibenz[b,f]azepine] | 13 | 16 | 54 | 138 ± 33 | 2 ± 1
5 | 3.2 | CCc1nc2c(C)cc(C)nc2n1Cc1ccc2c(c1)CCc1cc(CN3CC=CCC3)ccc1N2 [Compound 2, 2-(2-Ethyl-5,7-dimethyl-3H-imidazo[4,5-b]pyridin-3-ylmethyl)-8-(1,2,5,6-tetrahydropyridin-1-ylmethyl)-10,11-dihydro-5H-dibenz[b,f]azepine] | – | – | – | – | –
